Data on ten compounds can be found in patent US20080234254A1, “Inhibitors of Histone Deacetylase” (UNIVERSITY OF LEEDS, priority 2004, published 2008).

Where two headings read alike, the source gives them in different places.

One data set concerns OVCAR-4. Put plainly: Comparison test versus MS275: OVCAR-4 (ovarian cancer). It is filed as cell-based. To be noted: Homo sapiens, read-out: potency (quantity not named; values match GI50 of Table 1). From the text:
(§1) 6 ovarian cancer cell lines were screened against both compound (4) and MS275.

The next data set has as its system UACC-257. Put plainly: Screening against cancer cell lines: UACC-257 (Melanoma). Format: cell-based. To be noted: Homo sapiens; UACC-257, melanoma; comparison versus MS275; read-out: potency (quantity not named; values match GI50 of Table 1). From the text: (§2) Screening of Benzamide Derivatives Against Cancer Cell Lines Tables 1 and 2 tabulate by way of example the results obtained for compounds (4) and (6).
(§3) 7 melanoma cancer cell lines were screened against both compound (4) and MS275.

For another data set, the system named is SN12C. Put plainly: Screening against cancer cell lines: SN12C (Renal). Format: cell-based. To be noted: Homo sapiens, renal cancer, comparison versus MS275, read-out: potency (quantity not named; values match GI50 of Table 1).
Text: as §2
(§4) 7 renal cancer cell lines were screened against both compound (4) and MS275.

The next data set deals with NCI-H23. As to the kind of experiment: Screening against cancer cell lines: NCI-H23 (Non-Small Cell Lung). It is filed as cell-based.
Text: as §2
(§5) 8 non-small cell lung cancer cell lines were screened against both compound (4) and MS275.

The next data set deals with NCI/ADR-RES. Put plainly: Screening against cancer cell lines: NCI/ADR-RES (Breast). It is filed as cell-based.
Text: as §2
(§6) 7 breast cancer cell lines were screened against both compound (4) and MS275.

The test system of another data set is HCT-15. As to the kind of experiment: Screening against cancer cell lines: HCT-15 (Colon). It is filed as cell-based. To be noted: Homo sapiens; HCT-15, colon cancer; comparison versus MS275; read-out: potency (quantity not named; values match GI50 of Table 1).
Text: as §2
(§7) 6 colon cancer cell lines were screened against both compound (4) and MS275.

In a further data set the test system is IGROV1. Put plainly: Screening against cancer cell lines: IGROV1 (Ovarian). Format: cell-based. The note with it: for GI50: IGROV-1.
Text: as §2, §1

The test system of a further data set is ACHN. Put plainly: Screening against cancer cell lines: ACHN (Renal). Format: cell-based. To be noted: Homo sapiens, renal cancer, comparison versus MS275, read-out: potency (quantity not named; values match GI50 of Table 1).
Text: as §2, §4

The subject of a further data set is RXF 393. Put plainly: Screening against cancer cell lines: RXF 393 (Renal). Format: cell-based. To be noted: Homo sapiens; RXF 393, renal cancer; comparison versus MS275; read-out: potency (quantity not named; values match GI50 of Table 1).
Text: as §2, §4

A further data set has as its system SK-OV-3. Put plainly: Comparison test versus MS275: SK-OV-3 (ovarian cancer). Format: cell-based. The note with it: Homo sapiens, read-out: potency (quantity not named; values match GI50 of Table 1).
Text: as §1

The test system of a further data set is LOX IMVI. Put plainly: Screening against cancer cell lines: LOX IMVI (Melanoma). Format: cell-based.
Text: as §2, §3

The next data set has as its system MDA-MB-435. As to the kind of experiment: Screening against cancer cell lines: MDA-MB-435 (Breast). Format: cell-based.
Text: as §2, §6

For another data set, the system named is SK-MEL-28. Put plainly: Screening against cancer cell lines: SK-MEL-28 (Melanoma). Format: cell-based. The note with it: Homo sapiens; SK-MEL-28, melanoma; comparison versus MS275; read-out: potency (quantity not named; values match GI50 of Table 1).
Text: as §2, §3

The test system of another data set is 786-0. Put plainly: Comparison test versus MS275: 786-0 (renal cancer). It is filed as cell-based. To be noted: Homo sapiens, read-out: potency (quantity not named; values match GI50 of Table 1).
Text: as §4

The next data set concerns HCC-2998. Put plainly: Screening against cancer cell lines: HCC-2998 (Colon). It is filed as cell-based.
Text: as §2, §7

In another data set the test system is KM-12. Put plainly: Comparison test versus MS275: KM-12 (colon cancer). It is filed as cell-based. To be noted: Homo sapiens, KM12, read-out: potency (quantity not named; values match GI50 of Table 1).
Text: as §7

For the next data set, the system named is NCI-H522. As to the kind of experiment: Screening against cancer cell lines: NCI-H522 (Non-Small Cell Lung). It is filed as cell-based.
Text: as §2, §5

A further data set relates to MDA-MB-231/ATCC. Put plainly: Screening against cancer cell lines: MDA-MB-231/ATCC (Breast). The note with it: Homo sapiens, breast cancer, comparison versus MS275, read-out: potency (quantity not named; values match GI50 of Table 1). Format: cell-based.
Text: as §2, §6

The test system of the next data set is cancer cell lines. Put plainly: Screening of benzamide derivatives against cancer cell lines (summary). Format: cell-based. The note with it: summary of Tables 1 and 2.
Text: as §2

A further data set deals with SR. As to the kind of experiment: Screening against cancer cell lines: SR (Leukaemia). Format: cell-based.
Text: as §2

For the next data set, the system named is rat fibroblasts. The note with it: cited from earlier work.
A further data set relates to tumours. To be noted: mice; cited from earlier work.

With `C=C(CN1CCOCC1)c1ccc(C(=O)Nc2ccccc2N)cc1` [(1), N-(2-Amino-phenyl)-4-(1-morpholin-4-ylmethyl-vinyl)-benzamide], the melting point (as a rule, the temperature of the solid-liquid transition) was in the range of 163 to 164 °C.

Regarding `Nc1ccccc1NC(=O)c1ccc(CNC(=O)OCc2cccnc2)cc1` [MS275, reference compound], the GI50 in the data set on OVCAR-4 was determined as 20000 nM; with UACC-257, 1540 nM; in the data set with SN12C it was 5010 nM; in the data set with NCI-H23 (Homo sapiens, NCI-H23, non-small cell lung cancer, comparison versus MS275, read-out: potency (quantity not named; values match GI50 of Table 1)), 1030 nM; in the data set with NCI/ADR-RES (Homo sapiens, breast cancer, comparison versus MS275, read-out: potency (quantity not named; values match GI50 of Table 1)), 1260 nM; in the data set with HCT-15, 3980 nM. Besides, the GI50 in the data set on IGROV1 (Homo sapiens, IGROV1, ovarian cancer, comparison versus MS275, read-out: potency (quantity not named; values match GI50 of Table 1)) was determined as 2510 nM; in the data set on ACHN, 2000 nM; in the data set on RXF 393, 2000 nM; in the data set with SK-OV-3 it was 5010 nM; with LOX IMVI (Homo sapiens, melanoma, comparison versus MS275, read-out: potency (quantity not named; values match GI50 of Table 1)) it was 790 nM; with MDA-MB-435 (Homo sapiens, MDA-MB-435, breast cancer, comparison versus MS275, read-out: potency (quantity not named; values match GI50 of Table 1)), 10000 nM. Further, the GI50 with SK-MEL-28 is 2000 nM; with 786-0, 3160 nM; in the data set on HCC-2998 (Homo sapiens, HCC-2998, colon cancer, comparison versus MS275, read-out: potency (quantity not named; values match GI50 of Table 1)), 1260 nM; in the data set with KM-12, 25000 nM; in the data set on NCI-H522 (Homo sapiens, NCI-H522, non-small cell lung cancer, comparison versus MS275, read-out: potency (quantity not named; values match GI50 of Table 1)), 1000 nM; in the data set on MDA-MB-231/ATCC, 2000 nM.

Compound `C=C(CN1CCN(c2ccccc2OC)CC1)c1ccc(C(=O)Nc2ccccc2N)cc1` [(9), N-(2-aminophenyl)-4-{1-[4-(2-methoxy-phenyl)-piperazin-1-ylmethyl]vinyl}-benzamide] displayed a melting point of 115 to 116 °C.

`C=C(CN1CCc2c([nH]c3ccccc23)C1)c1ccc(C(=O)Nc2ccccc2N)cc1` [(6), N-(2-aminophenyl)-4-[1-(1,3,4,9-tetrahydro-2H-β-carbolin-2-ylmethyl)vinyl]benzamide]: the GI50 in the data set with NCI-H23 (Homo sapiens, NCI-H23) worked out at 1040 nM; with NCI/ADR-RES (Homo sapiens) it was 973 nM; in the data set with IGROV1 (Homo sapiens) it was 32 nM; with LOX IMVI (Homo sapiens), 763 nM; with MDA-MB-435 (Homo sapiens, MDA-MB-435), 948 nM; in the data set on SR (Homo sapiens), 622 nM. The GI50 in the data set on HCC-2998 (Homo sapiens, HCC 2998) came to 731 nM; with NCI-H522 (Homo sapiens, NCI-H522) it was 150 nM. In addition, the CC50 in the data set on NCI-H23 (Homo sapiens, NCI-H23, read-out: LC50) is 13400 nM; in the data set with NCI/ADR-RES (Homo sapiens, read-out: LC50), 18300 nM; with IGROV1 (Homo sapiens, IGROV-1, read-out: LC50), over 50000 nM; in the data set with LOX IMVI (Homo sapiens, read-out: LC50), over 50000 nM; in the data set on MDA-MB-435 (Homo sapiens, MDA-MB-435, read-out: LC50) it was 5600 nM; in the data set with SR (Homo sapiens, read-out: LC50) it was over 50000 nM. Also, the CC50 with HCC-2998 (Homo sapiens, HCC 2998, read-out: LC50) is 5000 nM; with NCI-H522 (Homo sapiens, NCI-H522, read-out: LC50), over 50000 nM. Further, the TGI (as a rule, the concentration at which net growth stops) is 3200 nM in the data set on NCI-H23 (NCI-H23, Non-Small Cell Lung, Table 2); 3900 nM in the data set on NCI/ADR-RES (Breast, Table 2); 8500 nM with IGROV1 (IGROV1, Ovarian, Table 2); 2400 nM in the data set on LOX IMVI (Melanoma, Table 2); 2200 nM in the data set on MDA-MB-435 (MDA-MB-435, Breast, Table 2); “— (‘—’ indicates a concentration exceeding 50 μM.)” in the data set with SR (Leukaemia, Table 2). Also, the TGI with HCC-2998 (HCC-2998, Colon, Table 2) was determined as 1900 nM; in the data set on NCI-H522 (NCI-H522, Non-Small Cell Lung, Table 2) it was 3000 nM. Besides, the “activity against cancer cell lines (in words)” value in the data set on cancer cell lines is reported as “nanomolar activity”.

Compound `CC(C)=C(CN1CCc2ccccc2C1)c1ccc(C(=O)Nc2ccccc2N)cc1` [(14), N-(2-Amino-phenyl)-4-[1-(3,4-dihydro-1H-isoquinolin-2-ylmethyl)-2-methyl-propenyl]-benzamide] registered a melting point of 120 °C.

Take `C=C(CN(C)Cc1ccccc1)c1ccc(C(=O)Nc2ccccc2N)cc1` [(2), N-(2-amino-phenyl)-4-(1-{[benzyl(methyl)amino]methyl}vinyl)benzamide]: the melting point fell in the range of 110 to 111 °C.

Consider `C=C(CN1CCOCC1)c1ccc(CC(=O)Nc2ccccc2N)cc1` [(11), N-(2-Amino-phenyl)-2-[4-(1-morpholin-4-ylmethyl-vinyl)-phenyl]-acetamide], for which the melting point was 129 °C.

As for `CC(/C=C/C(=O)NO)=C\[C@@H](C)C(=O)c1ccc(N(C)C)cc1` [Trichostatin A], in the data set on rat fibroblasts, the “effect on the cell cycle” value is “arrest of rat fibroblasts at the G1 and G2 phases of the cell cycle”. In the data set with tumours, the formation of tumours entry is listed as “prevent the formation of tumours in mice”.

`C=C(CNCc1ccccc1)c1ccc(C(=O)Nc2ccccc2N)cc1` [(7), N-(2-aminophenyl)-4-{1-[(benzylamino)methyl]vinyl}benzamide] yielded a melting point of 89 to 91 °C.

On to `C=C(CN1CCOCC1)c1ccc(CCCC(=O)Nc2ccccc2N)cc1` [(13), N-(2-Amino-phenyl)-4-[4-(1-morpholin-4-ylmethyl-vinyl)-phenyl]-butanamide], for which the melting point lay in the range of 79 to 81 °C.
